Assay results taken from patent publication US20120189673A1, “POLYPEPTIDES AND USES THEREOF” (priority 2009, published 2012).

Legend:
[1] = molecular target: C3a (complement anaphylatoxin C3a peptides in chronic wound fibrin slough) (human) (UniProt P01024); test: double immunogold electron microscopy (C3a 10 nm, C-termini of TFPI 20 nm), evaluation of 50 bacterial profiles in wound fibrin slough
[2] = tested on: RAW 264.7 macrophages; test: NO production in RAW 264.7 macrophages stimulated with LPS or other microbial products (Griess reaction); type: cell-based, mouse; conditions: LPS from E. coli or P. aeruginosa; peptide at indicated concentrations (FIG. 41C)
Experimental: Effects of various microbial products on macrophages in vitro and anti-inflammatory effects by various peptides of HCII and TFPI. 3.5×10^5 cells were seeded in 96-well tissue culture plates (Nunc, 167008) in phenol red-free DMEM (Gibco) supplemented with 10% FBS and antibiotics. Following 6 hours of incubation to permit adherence, cells were stimulated with 10 ng/mL E. coli (0111:B4) LPS (Sigma), lipoteichoic acid, peptioglycan, or zymosan, with and without peptides at the indicated doses (se figure legends and figures). The levels of NO in culture supernatants were determined after 24 hours from stimulation using the Griess reaction. Briefly, nitrite, a stable product of NO degradation, was measured by mixing 50 μl of culture supernatants with the same volume of Griess reagent (Sigma, G4410) and reading absorbance at 550 nm after 15 min. Phenol-red free DMEM with FBS and antibiotics were used as a blank. A standard curve was prepared using 0-80 μM sodium nitrite solutions in ddH20.
LPS effects on macrophages in vitro—[…] cells were seeded in 96-well tissue culture plates (Nunc, 167008) in phenol red-free DMEM (Gibco) supplemented with 10% FBS containing 1% Anti-Anti (Invitrogen). Following 20 hours of incubation to permit adherence, cells were washed and stimulated with 10 ng/ml E. coli (0111:B4) or P. aeruginosa LPS (Sigma), with and without the peptides GGL27, GGL27(S), and DSE25 of various doses. The levels of NO in culture supernatants were determined after 24 hours from stimulation using the Griess reaction (27). Briefly, nitrite, a stable product of NO degradation, was measured by mixing 50 μl of culture supernatants with the same volume of Griess reagent (Sigma, G4410) and reading absorbance at 550 nm after 15 min. Phenol-red free DMEM with FBS and antibiotics were used as a blank. A standard curve was prepared using 0-80 μM sodium nitrite solutions in ddH20.

[3] = tested on: E. coli LPS shock in C57BL/6 mice; test: LPS model in vivo (LPS-induced shock): survival, cytokines, lungs; design: species or system mouse; conditions: for overall (proinflammatory) cytokine release: 20 h after LPS injection, peptide 500 μg; for survival: E. coli LPS i.p., peptide 500 μg i.p. 30 minutes after, followed 7 days
Experimental: Histochemistry—For immunostaining, wound biopsies were fixed in 10% formalin, rehydrated and embedded in paraffin. Sections of 5 μm thickness were placed on poly-lysine coated glass slides, deparaffinized in xylene and rehydrated in graded alcohols. The slides were then treated with Dako antigen retrieval solution (Dako) for 40 min at 97° C., and incubated for 24 h at room temperature in a 1:50 dilution of polyclonal antibodies against TFPI (Sigma-Aldrich, in TBS with 1% BSA, 5% goat serum, 0.05% Tween 20). After three 20 min washes in TBS with 0.05% Tween 20, the sections were incubated with alkaline phosphatase conjugated secondary goat anti-rabbit IgG (Dako) diluted 1:1000 in the same buffer as the primary antibody and incubated for another 24 hours, followed by three 20 min washes. Sections were developed with Vulcan Fast Red chromogen (Biocare Medical, Concord, Calif.) and the slides were counterstained with Harris Hematoxylin (EM Science, Gibbstown, N.J.). For histological evaluation of lungs derived from the in vivo LPS-models in mice, tissues were embedded as above, sectioned and stained with hematoxylin and eosin by routine procedures (Histocenter, Gothenburg, Sweden).
LPS model in vivo—Male C57BL/6 mice (8-10 weeks, 22+/−5 g), were injected intraperitoneally with 18 mg E. coli 0111:B4 LPS (Sigma) per kg of body weight. Thirty minutes after LPS injection, 0.5 mg GGL27, GGL27(S), DSE25 or buffer alone was injected intraperitoneally into the mice. Survival and status was followed during seven days. For blood collection and histochemistry, mice were sacrificed 20 h after LPS challenge, and lungs were removed and fixed. These experiments were approved by the Laboratory Animal Ethics Committee of Malmo/Lund.
Cytokine assay—The cytokines IL-6, IL-10, MCP-1, INF-γ, and TNF-α were measured in plasma from mice subjected to LPS (with or without peptide treatment) using the Cytometric bead array; mouse inflammation kit (Becton Dickinson AB) according to the manufacturer's instructions.

[4] = tested on: Escherichia coli, Pseudomonas aeruginosa, Bacillus subtilis, Staphylococcus aureus, Candida albicans, Candida parapsilosis; test: Radial diffusion assay (RDA); type: cell-based; conditions: peptide at 100 μM, 6 μl per well; 18-24 h at 37° C.
Experimental: Radial diffusion assay. Essentially as described earlier, bacteria were grown to mid-logarithmic phase in 10 ml of full-strength (3% w/v) trypticase soy broth (TSB) (Becton-Dickinson). The microorganisms were then washed once with 10 mM Tris, pH 7.4. Subsequently, 4×10^6 cfu were added to 15 ml of the underlay agarose gel, consisting of 0.03% (w/v) TSB, 1% (w/v) low electroendosmosis type (EEO) agarose (Sigma-Aldrich) and 0.02% (v/v) Tween 20 (Sigma-Aldrich). The underlay was poured into a Ø 144 mm petri dish. After agarose solidification, 4 mm-diameter wells were punched and 6 μl peptide solution of required concentration added to each well. Plates were incubated at 37° C. for 3 h to allow peptide diffusion. The underlay gel was then covered with 15 ml of molten overlay (6% TSB and 1% Low-EEO agarose in distilled H2O). Antimicrobial activity of a peptide was visualized as a zone of clearing around each well after 18-24 h of incubation at 37° C.
Radial diffusion assay—Essentially as described earlier (23, 24), bacteria were grown to mid-logarithmic phase in 10 ml of full-strength (3% w/v) trypticase soy broth (TSB) (Becton-Dickinson). The microorganisms were then washed once with 10 mM Tris, pH 7.4. […]

[5] = tested on: bacteria; conditions: cited from earlier work
[6] = tested on: intrinsic pathway of coagulation in normal human plasma; test: Clotting assay: activated partial thromboplastin time (aPTT); type: biochemical
Experimental: (§1) Clotting assays. All clotting times were measured using an Amelung coagulometer. Activated partial thromboplastin time (aPTT) was measured by incubating the peptides diluted in sterile water at the indicated concentrations, with 100 μL citrated human plasma for 1 minute followed by the addition of 100 μL aPTT reagent (aPTT Automate, Diagnostica Stago) for 60 seconds at 37° C. Clotting was initiated by the addition of 100 μL of a 25-mM CaCl2 solution. In the prothombrin time assay (PT), clotting was initiated by the addition of 100 μL Thrombomax with calcium (PT reagent; Sigma-Aldrich). For measuring the thrombin clotting time (TCT), clotting was initiated by the addition of 100 μL Accuclot thrombin time reagent (TCT reagent; Sigma-Aldrich).

[7] = tested on: thrombin induced fibrin network formation in normal human plasma; test: Clotting assay: thrombin clotting time (TCT); type: biochemical
Experimental: as §1

[8] = tested on: E. coli; test: Viable count analysis, E. coli; type: cell-based, Escherichia coli
Experimental: Viable count analysis. E. coli ATCC 25922 bacteria were grown to mid-logarithmic phase in Todd-Hewitt (TH) medium. Bacteria were washed and diluted in 10 mM Tris, pH 7.4 containing 5 mM glucose. E. coli ATCC 25922 (50 μl; 2×10^6 cfu/ml) were incubated, at 37° C. for 2 h with peptides at the indicated concentrations. Other experiments with the TFPI-peptides and LL-37 were performed in 10 mM Tris, pH 7.4, containing also 0.15 M NaCl, with normal or heat inactivated 20% citrate-plasma (PP). Serial dilutions of the incubation mixture were plated on TH agar, followed by incubation at 37° C. overnight and cfu determination.
(§2) Viable count analysis—E. coli strains were grown to mid-logarithmic phase in Todd-Hewitt (TH). P. aeruginosa strains were grown in TH overnight. Bacteria were washed and diluted in 10 mM Tris, pH 7.4 containing 5 mM glucose. 2×10^6 cfu/ml bacteria were incubated in 50 μl, at 37° C. for 2 h with the C-terminal TFPI-derived peptides GGL27, TKR22, or LIK17 at the indicated concentrations. Additional experiments were performed in 10 mM Tris, pH 7.4, containing 0.15 M NaCl, either alone or with 20% normal or heat inactivated citrate-plasma. Serial dilutions of the incubation mixture were plated on TH agar, followed by incubation at 37° C. overnight and cfu determination.

[9] = tested on: P. aeruginosa; test: Viable count analysis, P. aeruginosa; type: cell-based, Pseudomonas aeruginosa; conditions: 20% human citrate plasma
Experimental: as §2

C3a (complement anaphylatoxin C3a peptides in chronic wound fibrin slough) (human), sequence (P01024 672-748): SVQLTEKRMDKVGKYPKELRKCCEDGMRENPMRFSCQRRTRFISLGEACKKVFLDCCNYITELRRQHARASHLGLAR

“C-terminal TFPI peptides (endogenous C-terminal fragments of tissue factor pathway inhibitor found in human chronic wound fibrin slough) (from UniProt P10646 268-304)” showed a percent of TFPI-molecules associated with C3a [1] of 70%.
In the case of “DSEEDEEHTIITDTELPPLKLMHSF (DSE25 control peptide) [control peptide from the N-terminus of TFPI, reference compound]”, the “LPS-mediated NO release” value [2] is reported as “did neither block NO release”, the “overall (proinflammatory) cytokine release” value [3] is reported as “nor significantly alter overall cytokine release” and the survival [3] is reported as “nor significantly alter overall cytokine release, as well as survival”. For the same substance, the “antimicrobial activity (zones of clearance)” value [4] was “no antimicrobial effects”.
In the case of “GGLISTSSSSSSQRVKIAYEEIFVKNM (GGL27(S) control peptide) [control peptide, central K/R residues of GGL27 replaced by S, reference compound]”, the “LPS-mediated NO release” value [2] is reported as “did neither block NO release”, the “overall (proinflammatory) cytokine release” value [3] is reported as “nor significantly alter overall cytokine release” and the survival [3] is reported as “nor significantly alter overall cytokine release, as well as survival”. The “antimicrobial activity (zones of clearance)” value [4] was “no antimicrobial effects”.
In the case of “GKRKKKGKGLGKKRDPCLRKYK (Heparin-binding growth factor derived peptide) [GKR22]”, the “antibacterial activity at physiological conditions” value [5] is listed as “retain their antibacterial activity at physiological conditions”.
For “HKHGHGHGKHKNKGKKNGKH (A kininogen-derived antimicrobial peptide) [HKH20]”, the “antibacterial activity at physiological conditions” value [5] is listed as “retain their antibacterial activity at physiological conditions”.
In the case of “TKRKRKKQRVKIAYEEIFVKNM [TKR22, C-terminal peptide of TFPI]”, the “activated partial thromboplastin time (aPTT)” value [6] is reported as “impair the intrinsic pathway of coagulation”, the “thrombin clotting time (TCT)” value [7] is reported as “not significantly affected” and the “bactericidal activity in presence of human plasma” value ([8]; 0.15 M NaCl, 10 mM Tris, pH 7.4 with 20% human citrate plasma, versus buffer) is reported as “significantly enhanced”. The “bactericidal activity in heat-inactivated plasma” value ([8]; 20% heat-inactivated human citrate plasma) was “abolished the potentiation” and the “killing in human plasma compared with physiological buffer” value [9] was “not enhanced”.
